US8399444B2, “Bicyclic imidazole as DP1 receptor antagonists” (GlaxoSmithKline Intellectual Property Development Ltd., priority 2008, dated 2013)
Where “and” joins values, the source holds several entries; their conditions need not be identical. Equal values may be shown once. Where a name gives a salt, the structure may show the parent alone.

Target: T1, Prostanoid DP1 receptor (Homo sapiens, UniProt Q13258)
T1 construct: expressed in transfected cells; host or cells: CHO K1
T1 sequence (Q13258 1-359): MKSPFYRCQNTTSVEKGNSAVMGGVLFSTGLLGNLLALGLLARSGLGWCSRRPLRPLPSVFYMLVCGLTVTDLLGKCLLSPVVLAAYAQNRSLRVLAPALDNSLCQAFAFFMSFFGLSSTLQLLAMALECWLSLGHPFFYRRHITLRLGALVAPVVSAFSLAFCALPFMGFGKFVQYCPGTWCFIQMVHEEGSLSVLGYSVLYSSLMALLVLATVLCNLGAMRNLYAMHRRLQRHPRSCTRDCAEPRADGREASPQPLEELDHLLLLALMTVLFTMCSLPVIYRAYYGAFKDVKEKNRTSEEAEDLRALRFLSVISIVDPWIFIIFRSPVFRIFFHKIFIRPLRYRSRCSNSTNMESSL
Assay: Measurement of cAMP using TR-FRET LANCE assay: Prostanoid DP1
Format: cell-based
Conditions: CHO cells expressing DP1 receptor, antagonism of PGD2 (EC80) cAMP response; read-out: pKi value (converted)
Description: CHO K1 cells, stably expressing the Prostanoid DP1 receptor, were maintained in culture in DMEM/F12, supplemented with 5% FBS, 2 mM L-glutamine, 400 μg/mL hygromycin B in 95%: 5% air: CO2 at 37° C. Following harvest from culture, cells were centrifuged at 250 g at 4° C. for 10 minutes and re-suspended in ice cold dialysed FCS. Once the cells were in mono-suspension they were slowly mixed with an equal volume of ice cold 80% dialysed FCS: 20% DMSO (pre-mixed and chilled several hours earlier). The cells were then aliquoted into 1 mL tubes within a 96 well block (pre-cooled to 4° C.). Once sealed, the tubes were frozen in a controlled rate freezer. The frozen cells were then transferred to a −140° C. freezer for long term storage.
Measurement of cAMP Using TR-FRET LANCE™ Assays: Prostanoid DP1
The potency of the compounds were determined using a LANCE™ cAMP assay kit as per the kit instructions. Briefly, CHO cells expressing DP1 receptor were thawed at 37° C., diluted in PBS and centrifuged at 1000 RPM for 5 minutes. Cells were then re-suspended (2 million cells/mL) in stimulation buffer (HBSS containing 0.01% BSA, 500 μM FAC IBMX, 5 mmol/L HEPES adjusted to pH 7.4 with KOH.
Briefly, cells were added (10,000 cells/well at 5 μL addition) to low volume white Greiner polypropylene 384-well plate assay plates containing 0.1 μl test compound. Following a 15 minute incubation at room temperature, 5 μl of antibody solution (stimulation buffer containing Alexia fluor 647) containing PGD2 at twice the determined EC80 concentration was added. Plates were incubated for a further 30 minutes at room temperature then detection mixture was added (kit components; detection buffer, europiumW8044-labelled streptavidin and biotin cAMP at 10 μl/well). Plates were covered and incubated the room temperature for 1 hour before reading on a Viewlux Microplate Imager using TR-FRET label settings.
All compounds were dissolved in DMSO at a concentration of 10 mM and were prepared in 100% DMSO using a 1 in 4 dilution step to provide 11-point concentration—response curves. The dilutions were transferred to the assay plates ensuring that the DMSO concentration was constant across the plate at 1% for all assays.
All data were normalised to the mean of 16 high and 16 low control wells on each plate. A four parameter curve fit of the following form was then applied.
Where a is the minimum, b is the Hill slope, c is the XC50, and d is the maximum. Data are presented as the mean pXC50 (negative log 10 of the molar XC50) with the standard deviation (SD) of number of tests in the experiments.

Ki | Structure (SMILES)
≤ 10 nM | CC(C)c1nc2c(n1Cc1ccc(Cl)c(Cl)c1)C(CC(=O)O)CCCC2 (centres unmarked) [Example 3, [3-[(3,4-dichlorophenyl)methyl]-2-(1-methylethyl)-3,4,5,6,7,8-hexahydrocyclohepta[d]imidazol-4-yl]acetic acid ammonia salt]
≤ 10 nM | CC(C)(C)c1nc2c(n1Cc1ccc(Cl)cc1)C(CC(=O)O)CCCC2 (centres unmarked) [Example 6, [3-[(4-chlorophenyl)methyl]-2-(1,1-dimethylethyl)-3,4,5,6,7,8-hexahydrocyclohepta[d]imidazol-4-yl]acetic acid]
≤ 100 nM | CC(C)c1nc2c(n1Cc1ccc(Cl)cc1)C(CC(=O)O)CC2 (centres unmarked) [Example 7, [3-[(4-chlorophenyl)methyl]-2-(1-methylethyl)-3,4,5,6-tetrahydrocyclopenta[d]imidazol-4-yl]acetic acid ammonia salt]
≤ 10 nM | CC(C)c1nc2c(n1Cc1ccc(Cl)c(Cl)c1)C(CC(=O)O)CC2 (centres unmarked) [Example 9, [3-[(3,4-dichlorophenyl)methyl]-2-(1-methylethyl)-3,4,5,6-tetrahydrocyclopenta[d]imidazol-4-yl]acetic acid ammonia salt]
≤ 100 nM | CC(C)(C)c1nc2c(n1Cc1ccc(Cl)cc1)C(CC(=O)O)CC2 (centres unmarked) [Example 14, [3-[(4-chlorophenyl)methyl]-2-(1,1-dimethylethyl)-3,4,5,6-tetrahydrocyclopenta[d]imidazol-4-yl]acetic acid ammonia salt]
≤ 10 nM | CC(C)c1nc2c(n1Cc1ccc(Cl)cc1)C(CC(=O)O)CCC2 (centres unmarked) [Example 15, [1-[(4-chlorophenyl)methyl]-2-(1-methylethyl)-4,5,6,7-tetrahydro-1H-benzimidazol-7-yl]acetic acid]
≤ 100 nM | CC(C)c1nc2c(n1Cc1ccc(Cl)cc1Cl)C(CC(=O)O)CCC2 (centres unmarked) [Example 18, [1-(2,4-dichlorobenzyl)-2-isopropyl-4,5,6,7-tetrahydro-1H-benzimidazol-7-yl]acetic acid ammonia salt]
≤ 10 nM | CC(C)c1nc2c(n1Cc1ccc(Cl)c(Cl)c1)C(CC(=O)O)CCC2 (centres unmarked) [Example 19, [1-[(3,4-dichlorophenyl)methyl]-2-(1-methylethyl)-4,5,6,7-tetrahydro-1H-benzimidazol-7-yl]acetic acid]
≤ 100 nM | O=C(O)CC1CCCc2nc(C3CCCC3)n(Cc3ccc(Cl)cc3)c21 (centres unmarked) [Example 22, {1-[(4-chlorophenyl)methyl]-2-cyclopentyl-4,5,6,7-tetrahydro-1H-benzimidazol-7-yl}acetic acid ammonia salt]
≤ 100 nM | CC(C)(C)c1nc2c(n1Cc1ccc(Cl)cc1)C(CC(=O)O)CCC2 (centres unmarked) [Example 23, [1-[(4-chlorophenyl)methyl]-2-(1,1-dimethylethyl)-4,5,6,7-tetrahydro-1H-benzimidazol-7-yl]acetic acid, formic acid salt]
≤ 100 nM | CC(C)c1nc2c(n1Cc1ccc(Cl)cc1)C(OCC(=O)O)CCC2 (centres unmarked) [Example 24, {[1-[(4-chlorophenyl)methyl]-2-(1-methylethyl)-4,5,6,7-tetrahydro-1H-benzimidazol-7-yl]oxy}acetic acid, formic acid salt]
≤ 100 nM | CC(C)c1nc2c(n1Cc1ccc(Cl)cc1)C(CC(=O)O)CCC2 (centres unmarked) [Example 27, [1-[(4-chlorophenyl)methyl]-2-(1-methylethyl)-4,5,6,7-tetrahydro-1H-benzimidazol-7-yl]acetic acid ammonia salt]
≤ 10 nM | CC(C)c1nc2c(n1Cc1ccc(Cl)c(Cl)c1)C(CC(=O)O)CCC2 (centres unmarked) [Example 29, [1-[(3,4-dichlorophenyl)methyl]-2-(1-methylethyl)-4,5,6,7-tetrahydro-1H-benzimidazol-7-yl]acetic acid trifluoroacetic acid salt]
≤ 100 nM | CC(C)c1nc2c(n1[C@H](C)c1ccccc1)C(CC(=O)O)CCC2 (stereo partly drawn) [Example 31, {2-(1-methylethyl)-1-[(1R)-1-phenylethyl]-4,5,6,7-tetrahydro-1H-benzimidazol-7-yl}acetic acid ammonia salt]
≤ 100 nM | CC(C)c1nc2c(n1[C@H](C)c1ccc(Cl)cc1)C(CC(=O)O)CCC2 (stereo partly drawn) [Example 33, [1-[(1R)-1-(4-chlorophenyl)ethyl]-2-(1-methylethyl)-4,5,6,7-tetrahydro-1H-benzimidazol-7-yl]acetic acid ammonia salt]
≤ 10 nM | CC(C)c1nc2c(n1Cc1ccc(Cl)c(Cl)c1)C(OCC(=O)O)CCCC2 (centres unmarked) [Example 34, {[3-[(3,4-dichlorophenyl)methyl]-2-(1-methylethyl)-3,4,5,6,7,8-hexahydrocyclohepta[d]imidazol-4-yl]oxy}acetic acid ammonia salt]
≤ 100 nM | CC(C)c1nc2c(n1Cc1ccc(Cl)c(Cl)c1)C(OCC(=O)O)CCCC2 (centres unmarked) [Example 35, {[3-[(3,4-dichlorophenyl)methyl]-2-(1-methylethyl)-3,4,5,6,7,8-hexahydrocyclohepta[d]imidazol-4-yl]oxy}acetic acid hydrochloride]
≤ 100 nM and ≤ 10 nM and ~2.51 nM | CC(C)c1nc2c(n1Cc1ccc(Cl)c(Cl)c1)[C@@H](CC(=O)O)CCC2 [Example 40, [(7R)-1-[(3,4-dichlorophenyl)methyl]-2-(1-methylethyl)-4,5,6,7-tetrahydro-1H-benzimidazol-7-yl]acetic acid]

Tested on: asthma model
Assay: not given
Conditions: guinea pig; cited from earlier work

Structure (SMILES) | antigen-induced eosinophil infiltration into the lung
CC1(C)[C@H]2C[C@H](C/C=C\CCCC(=O)O)[C@@H](NC(=O)c3csc4ccc(O)cc34)[C@@H]1C2 [Example S-5751] | alleviated

Tested on: allergic rhinitis model
Assay: not given
Conditions: oral administration, guinea pig; cited from earlier work

Structure (SMILES) | early and late nasal responses
CC1(C)[C@H]2C[C@H](C/C=C\CCCC(=O)O)[C@@H](NC(=O)c3csc4ccc(O)cc34)[C@@H]1C2 [Example S-5751] | inhibited
